Reference: US6048892A, “Ester compound pesticide containing thereof” (Sumitomo Chemical Company, Limited, priority 1999, dated 2000)

What was measured:
[1] = tested on: common mosquitoes (Culex pipiens pallens); assay: Biological Test 6: mortality of last-instar mosquito larvae in water; format: in vivo; conditions: 24 h, read-out: mortality of the common mosquitoes
Method: 0.7 ml of aqueous emulsion, obtained by diluting emulsifiable concentrate prepared for each of the present compounds according to the formulation example 1, was added to 100 ml of ion-exchanged water (concentration of active ingredient: 3.5 ppm). Twenty last-instar larvae of common mosquitoes (Culex pipiens pallens) were left in the water. After one day, the mortality of the common mosquitoes was examined.

[2] = tested on: common mosquitoes (Culex pipiens pallens); assay: Biological Test 8: knock-down of mosquitoes by mosquito-coil; format: in vivo; conditions: 1.0 g of 0.3% mosquito-coil in 0.34 m^3 chamber; after 15 minutes
Method: Mosquito-coil containing the present compound in an amount of 0.3% was prepared according to the formulation example 10 for the present compounds. Ten female common mosquitoes (Culex pipiens pallens) were left in a glass chamber (70 cm×70 cm×70 cm: 0.34 m^3) and 1.0 g of 0.3% mosquito-coil having both ends lit was placed in the glass chamber. After 15 minutes, the rate of knocked-down mosquitoes was examined.

[3] = Toxicity Test: acute oral LD50; conditions: rat, in vivo, corn oil, fasted male 7-week old rats, after 7 days
Method: After subjecting the rats to a twenty-hour fasting, 0.1 ml of the diluted solution per 10 g weight was forcibly applied into the stomach of four male 7-week old rats. The rats were given food and water four hours after the application and thereafter regularly fed and watered, and kept in a cage. After 7 days, the mortality was examined for the rats and LD50 was calculated.

[4] = tested on: houseflies (Musca domestica); assay: Biological Test 4: mortality of female houseflies low sensitive to pyrethroids, treated filter paper; format: in vivo; conditions: 24 h
Method: Filter paper of 5.5 cm in diameter was laid in the bottom of a polyethylene cup (diameter: 5.5 cm). After 0.7 ml of a 500 ppm aqueous emulsion obtained by diluting each emulsifiable concentrate prepared according to the formulation example 1 was dropped on the filter paper and approximately 30 mg of sucrose as bait was uniformly scattered. Ten female houseflies (Musca domestica), which were low sensitive to pyrethroids, were left in the cup with a cover. After one day, the mortality was examined.

## Cc1ccc(COC(=O)[C@@H]2[C@H](/C=C(\Cl)C(F)(F)F)C2(C)C)o1 (relative stereo) [Compound (1), 5-methyl-2-furfuryl (1RS,cis)-3-(Z-2-chloro-3,3,3-trifluoroprop-1-enyl)-2,2-dimethylcyclopropanecarboxylate]
[1]
  mortality at 3.5 ppm: ≥ 90%
[2]
  rate of knocked-down mosquitoes: 100%
[3]
  LD50 at 168 h: 300 mg/kg
[4]
  mortality at 500 ppm: 100%
